# Measured values taken from patent US10407388B2, “Thiourea derivatives as activators of RORα and pharmaceutical composition containing same” (SEOUL NATIONAL UNIVERSITY R & DB FOUNDATION, priority 2011, dated 2019).
# How the values were obtained:
# CPT-1 = assay: Fatty acid oxidation gene CPT-1 in HepG2 cells, real-time RT-PCR; assay type: cell-based, human; conditions: 100 μM, 24 hours; FIG. 8
# Experimental: (§1) HepG2 cells (1×10^6 cells/well) were seeded on a 60-dish and cultured overnight in a DMEM containing 10% FBS. The HepG2 cells were maintained at 37° C. in a humidification thermostat containing 5% CO2 and 95% air. After culturing, the HepG2 cells were treated with JC1-38, JC1-40, and JC1-42 at a concentration of 100 μM for 24 hours. After treatment, effects thereof on transcriptional activity were analyzed by real-time reverse transcriptase-polymerase chain reaction (real-time RT-PCR) analysis. The PCR was performed using the following primers respectively specific to MCAD, ACO1, ACO2, HMGCS2, CPT-1, and ACS, which are involved in fatty acid oxidation: […]
# RORα [1] = target: T1, RORα (Homo sapiens, UniProt P35398); assay: Transcriptional activity of RORα according to concentration, RORE-Luc reporter and Flag-RORα vector in CV-1 cells (Experimental Example 2); assay type: cell-based; conditions: for transcriptional activity of RORα / activity of RORα at low concentrations: 1 μM; for transcriptional activity of RORα: 10 μM, 20 μM, 50 μM, and 100 μM, 24 hours, FIG. 4; for activity of RORα at low concentrations: 10 μM, and 20 μM; for effect of increasing the activity of RORα compared with melatonin: 50 μM to 100 μM, melatonin 100 μM
# T1 construct: expressed in transfected cells; host or cells: CV-1 cells (ATCC CCL-70)
# T1 sequence (P35398 1-523): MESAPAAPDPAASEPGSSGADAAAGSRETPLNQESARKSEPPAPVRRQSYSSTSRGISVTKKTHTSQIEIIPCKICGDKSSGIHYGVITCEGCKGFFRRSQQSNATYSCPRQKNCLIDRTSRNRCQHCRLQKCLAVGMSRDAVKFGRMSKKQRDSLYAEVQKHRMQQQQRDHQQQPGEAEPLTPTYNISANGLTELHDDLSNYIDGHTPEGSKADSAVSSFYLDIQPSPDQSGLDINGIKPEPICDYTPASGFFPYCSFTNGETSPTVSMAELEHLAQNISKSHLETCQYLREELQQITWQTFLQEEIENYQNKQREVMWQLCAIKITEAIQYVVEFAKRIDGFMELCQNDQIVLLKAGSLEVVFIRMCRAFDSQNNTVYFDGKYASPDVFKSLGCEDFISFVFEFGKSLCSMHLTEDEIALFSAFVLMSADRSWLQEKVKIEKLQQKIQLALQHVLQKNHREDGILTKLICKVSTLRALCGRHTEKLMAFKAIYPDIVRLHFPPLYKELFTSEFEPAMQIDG
# Experimental: CV-1 cells (4×10^4 cells/well) were seeded on a 24-well culture plate and cultured overnight in a DMEM containing 10% FBS. The CV-1 cells were maintained at 37° C. in a humidification thermostat containing 5% CO2 and 95% air. After culturing, the CV-1 cells were transformed with RORE-Luc reporter (0.05 μg) and Flag-RORα vector (0.005 μg) using calcium phosphate. […] Subsequently, cell lysates were collected, and luciferase activity was analyzed and determined using an analytical luminescence luminometer. The luciferase activity was standardized by β-gal activity to determine transcriptional efficiency, and data was attained as the mean and SD for two or three independent experimental results, and the results thereof are illustrated in FIG. 4.
# MTTP = assay: VLDL secretion gene MTTP in HepG2 cells, RT-PCR; assay type: cell-based, human; conditions: 100 μM, 24 hours; FIG. 9b
# Experimental: as §1, with “60-dish,” for “60-dish”, “RT-PCR” for “real-time reverse transcriptase-polymerase chain reaction (real-time RT-PCR)”, “CD36 (see FIG. 9a) involved in fatty acid uptake” for “MCAD, ACO1, ACO2, HMGCS2, CPT-1,”, “MTTP and ApoB100 (see FIG. 9b),” for “ACS,”, “the secretion of very low density lipoproteins:” for “fatty acid oxidation:”
# RORα [2] = target: T1, RORα; assay: Transcriptional activity of RORα, RORE-tk-Luc reporter in CV-1 cells (Experimental Example 1); assay type: cell-based; conditions: for Fold Activation: JC1 compounds 100 μM, 24 hours, luciferase activity standardized by β-gal, versus control treated only with solvent
# Experimental: CV-1 cells (CCL-70) were purchased from American Type Culture Collection (ATCC). The CV-1 cells (4×10^4 cells/well) were seeded on a 24-well culture plate and cultured overnight in a Dulbecco's Modified Eagle's Medium (DMEM) containing 10% fetal bovine serum (FBS). The CV-1 cells were maintained at 37° C. in a humidification thermostat containing 5% CO2 and 95% air. After culturing, the cells were transformed with RORE-tk-Luc reporter plasmid (100 ng) and ROR expression vector (5 ng) using calcium phosphate. […]
# [3] = Chemical stability of JC1 compounds; assay type: physicochemical
# MCAD = assay: Fatty acid oxidation gene MCAD in HepG2 cells, real-time RT-PCR; assay type: cell-based, human; conditions: 100 μM, 24 hours; FIG. 8
# Experimental: as §1
# ACO1 = assay: Fatty acid oxidation gene ACO1 in HepG2 cells, real-time RT-PCR; assay type: cell-based, human; conditions: 100 μM, 24 hours; FIG. 8
# Experimental: as §1
Compound,transcriptional activity of CPT-1 (CPT-1),transcriptional activity of RORα (RORα [1]),activity of RORα at low concentrations (RORα [1]),effect of increasing the activity of RORα compared with melatonin (RORα [1]),transcriptional activity of MTTP (MTTP),Fold Activation (RORα [2]),chemical stability [3],transcriptional activity of MCAD (MCAD),transcriptional activity of ACO1 (ACO1),"activity (transcriptional activity of RORα) (RORα [2]; 100 μM, relative to control treated only with a solvent) [%]"
"CNC(=S)NCc1ccccc1-c1ccncc1 [Compound 38, 1-methyl-3-(4-pyridinyl-2-benzyl)-thiourea]",increased,increased in a manner dependent on the concentration,insignificantly increased,comparable to or surpassed the effect provided by melatonin,increased,1.9,highly chemically stable,increased,increased,
"CNC(=S)NCc1ccc(OCc2ccccc2)cc1 [Compound 40, 1-(4-benzyloxy-benzyl)-3-methyl-thiourea]",increased,increased in a manner dependent on the concentration,insignificantly increased,comparable to or surpassed the effect provided by melatonin,increased,3.6,highly chemically stable,increased,increased,
"CNC(=S)NCc1ccc(Oc2ccccc2)cc1 [Compound 42, 1-(4-phenoxy-benzyl)-3-methyl-thiourea]",increased,increased in a manner dependent on the concentration,insignificantly increased,comparable to or surpassed the effect provided by melatonin,increased,4.6,highly chemically stable,increased,increased,460
